The target of assay [1] is T1, human recombinant PDE9 protein (Homo sapiens, UniProt O76083).
T1 construct: made in house; host or cells: COS-1 cells, transient transfection with pcDNA 3.1 (+); supernatant of the homogenate, not purified
Kind of assay: Measurement of PDE9-inhibiting activity ([3H]-cGMP hydrolysis). Format: biochemical. The procedure: Based on the base sequence of hsPDE9A1 registered with GenBank database (accession No.: AF048837), hsPDE9A1 fragment was amplified by polymerase chain reaction under the following conditions, using the following sequence (Amasham Pharmacia Biotech) as the primer and Human Prostate […] cDNA library (CLONTECH) as the template DNA, with Pfu Turbo DNA polymerase ([…]):
PCR condition: [95° C., 5 min]×1 cycle, [(95° C., 1 min), (58° C., 2 min), (72° C., 3 min)]×25 cycles, [72° C., 10 min]×1 cycle
Thus obtained hsPDE9A1 fragment was given a restricted enzymatic treatment with NheI and NotI, and thereafter inserted into pcDNA 3.1 (+) expression vector (Invitrogen) to let it serve as a human PDE9 expression vector.
Human PDE9 expression vector-transformed Escherichia coli was mass incubated to produce a large amount of human PDE9 expression vector, which was transiently transfected into COS-1 cells, with LIPOFECTAMINE 2000 Reagent (GIBCO). The cells were homogenized in ice-cooled buffer A (40 mmol/L Tris-HCl, pH7.5, 15 mmol/L benzamidine, 15 mmol/L 2-mercaptoethanol, 1 μg/mL Pepstatin A, 1 μg/mL Leupeptin, 5 mmol/L EDTA) and centrifuged at 4° C., 14,000×g for 10 minutes. The supernatant was isolated to provide human recombinant PDE9 protein solution.
This mixed solution was incubated at 30° C. for 30 minutes and the enzymatic reaction of PDE9 was terminated by heating the system in boiling water for 90 seconds. Returning the system to room temperature, 50 μL of Snake venom (SIGMA: 1 mg/mL) was added, followed by 10 minutes' incubation at 30° C., to convert the [^3H]-5′-GMP produced in the previous reaction to [^3H]-guanosine. […] Thereafter [^3H]-guanosine was eluted with 3 mL of 3 mol/L aqueous ammonia and its radiation activity was measured with liquid scintillation counter.
PDE9 inhibition of the tested compound can be calculated by the following formula: […]
From the percent inhibition at various concentration levels of each tested compound, its IC50 value against PDE9 can be determined.

Assay [2] has as its target T2, human recombinant PDE5 protein (Homo sapiens, UniProt O76074).
T2 construct: made in house; host or cells: COS-1 cells, transient transfection with pcDNA 3.1 (+); supernatant of the homogenate, not purified
In words: Measurement of PDE5-inhibiting activity. The assay is classed as biochemical. As to conditions: Tables A and C; read-out: Inhibiting Activity (IC50 value) PDE5. The procedure: PCR condition: [94° C., 2 min]×1 cycle, [(94° C., 30 sec), (65° C., 30 sec), (68° C., 3 min)]×25 cycles, [68° C., 6 min]×1 cycle
Thus obtained hsPDE5A1 fragment was given a restricted enzymatic treatment with XBaI and EcoRI, and thereafter inserted into pcDNA 3.1 (+) expression vector (Invitrogen) to let it serve as a human PDE5 expression vector.
Human PDE5 expression vector-transformed Escherichia coli was mass incubated to produce a large amount of human PDE5 expression vector, which was transiently transfected into COS-1 cells, with LIPOFECTAMINE 2000 Reagent (GIBCO). The cells were homogenized in ice-cooled buffer A and centrifuged at 4° C., 14,000×g for 10 minutes. The supernatant was isolated to provide human recombinant PDE5 protein solution.

Assay [3] relates to partial urethra obstruction model in guinea pigs. Kind of assay: Dysuria pathological model: partial urethra obstruction model, cystometry. Format: in vivo, Hartley female guinea pigs. The note with it: guinea pig, i.v., 1 mg/kg. Here is the method:
Three-four weeks old Hartley female guinea pigs (Japan SLC, Inc.) were given celiotomy under anesthesia with pentobarbital (30 mg/kg i.p.) and in their urethra to the peripheral side by 1-2 mm from the bladder neck, each a polyethylene tube of 1.4 mm in width and 2.0 mm in inner diameter was placed. After closing the wound, the guinea pigs were bred for at least 3 weeks to produce partial urethra obstruction model in guinea pigs in which occurrence of intravesical pressure rise not accompanied by micturition (uninhibited contraction) and residual urine were observed.
The model was catheterized under anesthesia with urethane (1 g/kg i.p.) at the apex of urinary bladder and right jugular vein for cystometrography and intravenous administration, respectively. The other end of the bladder catheter was connected to a pressure transducer and infusion pump via a three way stop-cock, and physiological saline was continuously infused into the bladder through the infusion pump at a rate of 0.4 mL/min to induce micturition reflex. Immediately after the micturition reflex was induced, infusion of physiological saline into the bladder was stopped. The intravesical pressure at the time the micturition reflex was induced was measured with the pressure transducer, and the obtained cystometrogram was recorded with pen recorder. The urine voided was collected with disposable type weighing dish and its weight was measured. Further the physiological saline remained in the bladder was sucked with syringe via the bladder catheter and the residual urine volume was measured. The operations of suspending the infusion of physiological saline upon induction of micturition reflex, and about 1 minute thereafter resuming the infusion of physiological saline to induce micturition reflex were repeated plural times (generally 4 times) to stabilize the micturition reflex.
After stabilizing the micturition reflex, a compound solution (prepared by dissolving the compound or methanesulfonic acid salt thereof in DMSO and diluting it with physiological saline or distilled water) or physiological saline was administered into the vein at a volume of 10 mL/kg over 4 minutes, and simultaneously the above-described micturition reflex operations were repeated until 30 minutes passed after initiation of the administration, while measuring the intravesical pressure and the volumes of micturition and residual urine. Also the frequency of uninhibited contraction occurrence during the above-described operations was recorded.

Setting [4] is: Tables A and C, read-out: Inhibiting Activity (IC50 value) PDE9.
Setting [5] is: Table B, read-out: Inhibiting Activity IC50 PDE9.

Where two headings read alike, the source gives them in different places.

T1 sequence (O76083 whole entry): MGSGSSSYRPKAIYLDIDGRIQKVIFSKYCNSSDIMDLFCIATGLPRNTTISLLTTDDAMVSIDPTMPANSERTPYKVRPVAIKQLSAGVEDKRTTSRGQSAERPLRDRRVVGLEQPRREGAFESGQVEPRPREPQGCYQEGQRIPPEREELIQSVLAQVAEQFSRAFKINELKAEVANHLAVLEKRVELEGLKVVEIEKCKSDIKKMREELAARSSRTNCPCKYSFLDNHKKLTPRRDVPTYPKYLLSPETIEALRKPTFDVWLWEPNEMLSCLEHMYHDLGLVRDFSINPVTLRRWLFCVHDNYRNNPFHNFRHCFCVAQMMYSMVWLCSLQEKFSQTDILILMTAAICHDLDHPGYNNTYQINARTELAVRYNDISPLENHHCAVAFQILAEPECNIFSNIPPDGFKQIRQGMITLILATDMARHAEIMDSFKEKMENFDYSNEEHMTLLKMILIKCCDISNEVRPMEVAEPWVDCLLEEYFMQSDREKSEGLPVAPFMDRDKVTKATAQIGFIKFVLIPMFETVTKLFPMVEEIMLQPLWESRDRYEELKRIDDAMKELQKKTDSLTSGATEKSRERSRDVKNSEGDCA

As a reminder, the IC50 is the midpoint of a concentration-inhibition curve. With “2-(3-Chloro-4-fluorobenzyl)-5-methyl-4-oxo-3,4-dihydrothieno-[2,3-d]pyrimidine-6-carboxylic acid [A-10]”, the results for the IC50 in assay [1] (setting [4]) and in assay [2] were 0.038 µM and 3.42 µM, respectively.
The matching figures for “2-(5-Chlorothiophen-2-ylmethyl)-5-methyl-4-oxo-3,4-dihydrothieno[2,3-d]pyrimidine-6-carboxylic acid [A-3]”: 0.034 µM and 6.9 µM.
The matching figures for `Cc1c(C(=O)O)sc2nc(Cc3ccsc3)[nH]c(=O)c12` [A-1, 5-Methyl-4-oxo-2-(thiophen-3-ylmethyl)-3,4-dihydrothieno[2,3-d]-pyrimidine-6-carboxylic acid]: 0.022 µM and 17.8 µM.
With `Cc1c(C(=O)O)sc2nc(Cc3cccc(Br)c3)[nH]c(=O)c12` [A-5, 2-(3-Bromobenzyl)-5-methyl-4-oxo-3,4-dihydrothieno[2,3-d]-pyrimidine-6-carboxylic acid], the half-inhibitory concentration (IC50) in assay [1] (setting [4]) came out at 0.024 µM; in assay [2] it was 4.43 µM.
For `Cc1c(C(=O)O)sc2nc(Cc3cccc(C(F)(F)F)c3)[nH]c(=O)c12` [A-6, 5-Methyl-4-oxo-2-(3-trifluoromethylbenzyl)-3,4-dihydrothieno[2,3-d]pyrimidine-6-carboxylic acid], the IC50 is 0.034 µM in assay [1] (setting [4]) and 22.2 µM in assay [2].
The matching figures for `Cc1c(C(=O)O)sc2nc(Cc3ccccc3SC(F)(F)F)[nH]c(=O)c12` [A-8, 5-Methyl-4-oxo-2-(2-trifluoromethylthiobenzyl)-3,4-dihydrothieno[2,3-d]pyrimidine-6-carboxylic acid]: 0.046 µM and 20 µM.
The matching figures for `Cc1c(C(=O)O)sc2nc(Cc3ccc(F)c(C(F)(F)F)c3)[nH]c(=O)c12` [A-9, 2-(4-Fluoro-3-trifluoromethylbenzyl)-5-methyl-4-oxo-3,4-dihydrothieno[2,3-d]pyrimidine-6-carboxylic acid]: 0.044 µM and 18.9 µM.
In the same order, the values of `Cc1c(C(=O)O)sc2nc(Cc3cc(Cl)ccc3F)[nH]c(=O)c12` [A-11, 2-(5-Chloro-2-fluorobenzyl)-5-methyl-4-oxo-3,4-dihydrothieno-[2,3-d]pyrimidine-6-carboxylic acid] are 0.022 µM and 5.71 µM.
As to `Cc1c(C(=O)O)sc2nc(Cc3cc(F)ccc3F)[nH]c(=O)c12` [A-12, 2-(2,5-Difluorobenzyl)-5-methyl-4-oxo-3,4-dihydrothieno-[2,3-d]pyrimidine-6-carboxylic acid], the IC50 in assay [1] (setting [4]) turned out to be 0.042 µM; in assay [2], 19.8 µM.
In the same order, the values of `Cc1c(C(=O)O)sc2nc(CC3=CCCC3)[nH]c(=O)c12` [A-13, 2-(Cyclopent-1-enylmethyl)-5-methyl-4-oxo-3,4-dihydrothieno-[2,3-d]pyrimidine-6-carboxylic acid] are 0.028 µM and 8.59 µM.
The matching figures for `Cc1c(C(=O)O)sc2nc(CC3=CCCCC3)[nH]c(=O)c12` [A-14, 2-(Cyclohex-1-enylmethyl)-5-methyl-4-oxo-3,4-dihydrothieno-[2,3-d]pyrimidine-6-carboxylic acid]: 0.054 µM and 1.64 µM.
The matching figures for `O=C(O)c1cc2c(=O)[nH]c(Cc3ccsc3)nc2s1` [A-15, 4-Oxo-2-(thiophen-3-ylmethyl)-3,4-dihydrothieno-[2,3-d]pyrimidine-6-carboxylic acid]: 0.014 µM and 34.9 µM.
Turning to `O=C(O)c1cc2c(=O)[nH]c(Cc3cccs3)nc2s1` [A-16, 4-Oxo-2-(thiophen-2-ylmethyl)-3,4-dihydrothieno[2,3-d]-pyrimidine-6-carboxylic acid], the half-inhibitory concentration (IC50) in assay [1] (setting [4]) was found to be 0.015 µM; in assay [2] it was 41.2 µM.
As to `O=C(O)c1cc2c(=O)[nH]c(Cc3ccccc3)nc2s1` [A-17, 2-Benzyl-4-oxo-3,4-dihydrothieno[2,3-d]pyrimidine-6-carboxylic acid], the concentration for half-maximal inhibition (IC50) came out at 0.019 µM in assay [1] (setting [4]) and 34.4 µM in assay [2].
The matching figures for `O=C(O)c1cc2c(=O)[nH]c(Cc3cccc(Cl)c3)nc2s1` [A-18, 2-(3-Chlorobenzyl)-4-oxo-3,4-dihydrothieno[2,3-d]-pyrimidine-6-carboxylic acid]: 0.01 µM and 15.8 µM.
In the same order, the values of `O=C(O)c1cc2c(=O)[nH]c(Cc3cccc(C(F)(F)F)c3)nc2s1` [A-19, 4-Oxo-2-(3-trifluoromethylbenzyl)-3,4-dihydrothieno-[2,3-d]pyrimidine-6-carboxylic acid] are 0.015 µM and 30.2 µM.
The matching figures for `O=C(O)c1cc2c(=O)[nH]c(Cc3ccc(Cl)c(Cl)c3)nc2s1` [A-20, 2-(3,4-Dichlorobenzyl)-4-oxo-3,4-dihydrothieno[2,3-d]-pyrimidine-6-carboxylic acid]: 0.009 µM and 2.28 µM.
Turning to `COc1ccc(Cc2nc3cc(C(=O)O)ccc3c(=O)[nH]2)cc1OC` [B-3, 2-(3,4-Dimethoxybenzyl)-4-oxo-3,4-dihydroquinazoline-7-carboxylic acid], in assay [1] (Table B), the “Inhibiting Activity inhibition ratio at 1 μM PDE9” value is on record as “inhibition ratio = 11%”.
For `COc1ccccc1Cc1nc2cc(C(=O)O)ccc2c(=O)[nH]1` [B-4, 2-(2-Methoxybenzyl)-4-oxo-3,4-dihydroquinazoline-7-carboxylic acid], the IC50 in assay [1] (setting [5]) is 1.29 µM.
Take `COc1cccc(Cc2nc3cc(C(=O)O)ccc3c(=O)[nH]2)c1` [B-5, 2-(3-Methoxybenzyl)-4-oxo-3,4-dihydroquinazoline-7-carboxylic acid]: the “Inhibiting Activity inhibition ratio at 1 μM PDE9” value in assay [1] (Table B) was “inhibition ratio = 41%”.
With `O=C(O)c1ccc2c(=O)[nH]c(Cc3ccccn3)nc2c1` [B-6, 4-Oxo-2-(2-pyridylmethyl)-3,4-dihydroquinazoline-7-carboxylic acid], the half-inhibitory concentration (IC50) in assay [1] (setting [5]) was 1.29 µM.
`O=C(O)c1ccc2c(=O)[nH]c(Cc3cccnc3)nc2c1` [B-7, 4-Oxo-2-(3-pyridylmethyl)-3,4-dihydroquinazoline-7-carboxylic acid]: the “Inhibiting Activity inhibition ratio at 1 μM PDE9” value in assay [1] (Table B) was “inhibition ratio = 30%”.
For the molecule `O=C(O)c1ccc2c(=O)[nH]c(Cc3cccs3)nc2c1` [B-8, 4-Oxo-2-(2-thienylmethyl)-3,4-dihydroquinazoline-7-carboxylic acid], in assay [1] (setting [5]), the half-inhibitory concentration (IC50) was determined as 0.093 µM.
Turning to `Cn1c(Cc2cccc(Cl)c2)nc2cc(C(=O)O)ccc2c1=O` [B-9, 2-(3-Chlorobenzyl)-3-methyl-4-oxo-3,4-dihydroquinazoline-7-carboxylic acid], in assay [1] (setting [5]), the IC50 stood at 4.66 µM.
As for `CC(C)c1ncc2c(=O)[nH]c3cc(Cl)ccc3n12` [C-1 (methanesulfonate)], in assay [3], the “Frequency of occurrence of uninhibited contraction volume change” value was “+0.77 times/min” and the “Residual urine volume volume change” value was found to be 0.22 mL.
